Reference: US20110208162A1, “METHODS FOR PREVENTING AGGREGATION OF ADIPOSE STROMAL CELLS” (Indiana University Rsearch and Technology Corporation, priority 2008, published 2011)
Entries after “also recorded” stand apart in the source; their conditions may differ.

Legend:
ASCs = test: Aggregation of fresh SVF or cultured ASCs in suspension buffer; assay type: cell-based, porcine or human; settings: for concentration dependence of inhibition of ASC aggregation: EDTA detached ASCs, 2 hours vigorous shaking
Protocol: SVF was isolated from either excised dorsal hump (porcine) or lipoaspirated subcutaneous (human) adipose tissues using reagents and protocols supplied by Tissue Genesis Inc. (TGI). Cells were used either fresh or after enrichment for stromal cells, containing adipose-derived stem cells (ADSC), by attachment to and growth on uncoated tissue culture plastic. Low passage (P1-P4) cultured ASCs were detached from plastic by 2 mM EDTA treatment. 2−3×10^6 fresh SVF or cultured ASCs were incubated for increasing times in 1 ml of TGI suspension buffer, containing human serum proteins, under varying conditions as indicated in Figure legends. Cell suspensions were vigorously rocked during incubation. At the times indicated the suspensions were observed macroscopically, noting aggregate size and number, as well as microscopically, to quantitate aggregates (defined as a tightly associated grouping of 4 or more cells) as well as individual cells.

freshly isolated ASC = test: Observation of aggregation of freshly isolated ASC after resuspension in delivery medium; assay type: cell-based, pig; settings: pre-treating SVF with heparin before infusion
Protocol: Isolation of the adipose stromal-vascular fraction (SVF). Fat was isolated using equipment and reagents from TGI-100 kits (Tissue Genesis, Inc, Honolulu, Hi., USA) following the manufacturer's instructions, with modifications as necessary in order to process the subcutaneous pig fat. Briefly, the fat was finely minced in a sterile container before washing 3 times with the supplied buffer solution. The fat was transferred into 50 ml conical screw cap centrifuge tubes before adding 10 ml of filtered ADIPASE™ solution. The tissue was dissociated by incubation in an Enviro-Genie incubator shaker for 2.5 hours, instead of the manufacturer's recommended digestion time for human fat of 45 minutes. The stromal-vascular pellet was recovered by centrifugation, filtered serially through 100 μm then 40 μm diameter pore size polypropylene filters (FALCON®). Viable cell counts were obtained using a hemacytometer and staining was performed with Trypan blue. Only cells larger than approximately 8 μm in diameter were counted. The cells were resuspended in a 20 ml cell the supplied suspension medium immediately before delivery. In the ASC-H group, the suspension medium contained 50 U heparin/ml. The cells were continuously mixed gently by hand until loaded into the syringe for delivery.
Preparative yield of ASC. […]

ASC = ASC proliferation in presence of heparin; assay type: cell-based

O=C(O)CN(CCN(CC(=O)O)CC(=O)O)CC(=O)O [EDTA, ethylenediaminetetra-acetic acid]
effect of EDTA on aggregation with co-addition of Ca^2+ (ASCs; EDTA then 7 mM Ca^2+): reversed
cell aggregation with EDTA in the buffer (ASCs; cultured ASCs, EDTA during incubation): inhibited; also recorded: blocked

heparin
aggregation at the highest concentration used (ASCs; 400 μg/ml): still persisted
concentration dependence of inhibition of ASC aggregation (ASCs): dose dependent
concentration dependence of inhibition of ASC aggregation (ASCs; listed as Heparin): concentration dependent
most effective concentration used for inhibition of ASC aggregation (ASCs; equals 100 U/ml): 400 µg/mL
aggregation of cells (ASCs; heparin 400 μg/ml final conc. in buffer): inhibits
formation of aggregates of all sizes (ASCs; small 4-10 cells, large >10 cells, Image J counts): blocked
aggregation and subsequent microinfarctions (freshly isolated ASC): substantially diminished
ASC proliferation (ASC; highest concentration, 400 μg/ml): totally inhibited
ASC proliferation (ASC; lowest concentration used, 50 μg/ml): inhibitory

trypsin
cell aggregation after trypsin pretreatment (ASCs; cultured ASCs, trypsin for 2 minutes): inhibited; also recorded: blocked
